We go through 20 molecules from patent US8841462B2, “Bicyclic heterocycles as MEK kinase inhibitors” (priority 2008, dated 2014).

The test system of experiment [1] is HCT116 human colorectal carcinoma. Put plainly: Cell proliferation assay, HCT116. The format is cell-based. As to conditions: HCT-116, HCT116, 72h exposure, CellTiter-Glo, read-out: EC50 in the cell proliferation assay, HCT116 cell line. Here is the method: (§1) Compounds are tested in a cell proliferation assay using the following cell lines:
(§2) HCT116 human colorectal carcinoma (ATCC)
(§3) Both cell lines are maintained in DMEM/F12 (1:1) media (Gibco) supplemented with 10% FCS at 37° C. in a 5% CO2 humidified incubator.
(§4) Cells are seeded in 96-well plates at 2,000 cells/well and after 24 hours they are exposed to different concentrations of compounds in 0.83% DMSO. Cells are grown for a further 72h, and an equal volume of CellTiter-Glo reagent (Promega) is added to each well. This lyses the cells and generates a luminescent signal proportional to the amount of ATP released (and therefore proportional to the number of cells in the well) that can be detected using a multi-well luminometer.
(§5) The EC50 is defined as the concentration at which a given compound achieves 50% inhibition of control. IC50 values are calculated using the XLfit software package (version 2.0.5).
(In general: Cellular ATP, detected with luciferase, serves as a proxy for viable cell number.)

The subject of experiment [2] is A375 human malignant melanoma. Put plainly: Cell proliferation assay, A375. The format is cell-based. The conditions noted are these: A-375, A375, 72h exposure, CellTiter-Glo, read-out: EC50 in the cell proliferation assay, A375 cell line. Here is the method: as §1
(§6) A375 human malignant melanoma (ATCC)
as §3, §4, §5

The test system of experiment [3] is phospho-ERK in HCT116 human colorectal carcinoma. Put plainly: Phospho-ERK cell-based assay, HCT116. As to conditions: HCT-116, HCT116, 2 h or 24 h exposure, p-ERK signal normalised to PI, read-out: EC50 in the phospho-ERK cell-based assay, HCT116 cell line. Here is the method:
(§7) Compounds are tested in a cell-based phospho-ERK ELISA using the following cell lines:
as §2, §3
(§8) Cells are seeded in 96-well plates at 2,000 cells/well and after 24 h they are exposed to different concentrations of compounds in 0.83% DMSO. Cells are grown for a further 2 h or 24 h, fixed with formaldehyde (2% final) and permeabilised with methanol. Following blocking with TBST-3% BSA, fixed cells are incubated with primary antibody (anti-phospho ERK from rabbit) over-night at 4° C. Cells are incubated with Propidium Iodide (DNA fluorescent dye) and detection of cellular p-ERK is performed using an anti-rabbit secondary antibody conjugated to the fluorescent Alexa Fluor 488 dye (Molecular probes). The fluorescence is analysed using the Acumen Explorer (TTP Labtech), a laser-scanning microplate cytometer, and the Alexa Fluor 488 signal is normalised to the PI signal (proportional to cell number).
(§9) The EC50 is defined as the concentration at which a given compound achieves a signal half way between the baseline and the maximum response. EC50 values are calculated using the XLfit software package (version 2.0.5).

The test system of experiment [4] is phospho-ERK in A375 human malignant melanoma. The experiment can be described thus: Phospho-ERK cell-based assay, A375. As to conditions: A-375, A375, 2 h or 24 h exposure, p-ERK signal normalised to PI, read-out: EC50 in the phospho-ERK cell-based assay, A375 cell line. Here is the method:
as §7, §6, §3, §8, §9

Where only a bound is given, the exact number is not on record here.

In the case of `O=C(NOCCO)c1ccc2[nH]ncc2c1Nc1ccc(I)cc1F` [Example 5, 4-(2-Fluoro-4-iodo-phenylamino)-1H-indazole-5-carboxylic acid (2-hydroxy-ethoxy)-amide], the results for the EC50 in experiment [1], in experiment [2] and in experiment [3] were below 500 nM, below 100 nM and below 100 nM, respectively.

Regarding `O=C(NOCCO)c1cnc2[nH]ncc2c1Nc1ccc(I)cc1F` [Example 6, 4-(2-Fluoro-4-iodophenylamino)-1H-pyrazolo[3,4-b]pyridine 5-carboxylic acid (2-hydroxyethoxy)-amide], the EC50 in experiment [1] was below 500 nM; in experiment [2] it was below 100 nM; in experiment [3], below 100 nM; in experiment [4], below 100 nM.

In the case of `C[C@H](O)CONC(=O)c1cnc2[nH]ncc2c1Nc1ccc(I)cc1F` [Example 7, 4-(2-Fluoro-4-iodophenylamino)-1H-pyrazolo[3,4-b]pyridine 5-carboxylic acid ((S)-2-hydroxypropoxy)-amide], the EC50 in experiment [1] is below 500 nM; in experiment [2], below 100 nM; in experiment [3] it was below 100 nM; in experiment [4], below 100 nM.

Take `CC(C)(CO)ONC(=O)c1cnc2[nH]ncc2c1Nc1ccc(I)cc1F` [Example 8, 4-(2-Fluoro-4-iodophenylamino)-1H-pyrazolo[3,4-b]pyridine-5-carboxylic acid (2-hydroxy-1,1-dimethylethoxy)-amide]: the EC50 in experiment [1] is below 600 nM; in experiment [2] it was below 100 nM; in experiment [3], below 100 nM; in experiment [4], below 100 nM.

With `O=C(NOC[C@H](O)CO)c1ccc2[nH]ncc2c1Nc1ccc(I)cc1F` [Example 9, 4-(2-Fluoro-4-iodophenylamino)-1H-indazole-5-carboxylic acid ((R)-2,3-dihydroxy-propoxy)-amide], the EC50 is below 500 nM in experiment [1], below 100 nM in experiment [2], below 100 nM in experiment [3] and below 100 nM in experiment [4].

In the case of `O=C(NOCCO)c1ccc2[nH]ncc2c1Nc1ccc(Br)cc1F` [Example 10, 4-(4-Bromo-2-fluoro-phenylamino)-1H-indazole-5-carboxylic acid (2-hydroxy-ethoxy)-amide], the EC50 in experiment [1] is below 500 nM; in experiment [2], below 100 nM; in experiment [3], below 100 nM; in experiment [4], below 100 nM.

As for `C[C@H](O)CONC(=O)c1ccc2[nH]ncc2c1Nc1ccc(Br)cc1F` [Example 11, 4-(4-Bromo-2-fluoro-phenylamino)-1H-indazole-5-carboxylic acid ((S)-2-hydroxy-propoxy)-amide], the EC50 in experiment [1] was below 500 nM; in experiment [2] it was below 100 nM; in experiment [3], below 100 nM; in experiment [4], below 100 nM.

Take `O=C(NOCCO)c1ccc2sncc2c1Nc1ccc(I)cc1F` [Example 12, 4-(2-Fluoro-4-iodo-phenylamino)-benzo[d]isothiazole-5-carboxylic acid (2-hydroxy-ethoxy)-amide]: the EC50 is below 500 nM in experiment [1], below 100 nM in experiment [2], below 100 nM in experiment [3] and below 100 nM in experiment [4].

`CSc1ccc(Nc2c(C(=O)NOCCO)ccc3[nH]ncc23)c(F)c1` [Example 13, 4-(2-Fluoro-4-methylsulfanyl-phenylamino)-1H-indazole-5-carboxylic acid (2-hydroxy-ethoxy)-amide]: the EC50 in experiment [1] was below 500 nM; in experiment [3], below 100 nM.

For `CCONC(=O)c1ccc2[nH]ncc2c1Nc1ccc(I)cc1F` [Example 14, 4-(2-Fluoro-4-iodo-phenylamino)-1H-indazole-5-carboxylic acid ethoxy-amide], the EC50 is below 500 nM in experiment [1], below 100 nM in experiment [2], below 100 nM in experiment [3] and below 100 nM in experiment [4].

Take `O=C(NOCC1CC1)c1ccc2[nH]ncc2c1Nc1ccc(I)cc1F` [Example 16, 4-(2-Fluoro-4-iodo-phenylamino)-1H-indazole-5-carboxylic acid cyclopropylmethoxy-amide]: in experiment [3], the EC50 was below 100 nM.

For the molecule `CONC(=O)c1ccc2[nH]ncc2c1Nc1ccc(I)cc1F` [Example 17, 4-(2-Fluoro-4-iodo-phenylamino)-1H-indazole-5-carboxylic acid methoxy-amide], the EC50 in experiment [1] was below 500 nM; in experiment [2], below 100 nM; in experiment [3], below 100 nM; in experiment [4], below 100 nM.

For `C[C@H](O)CONC(=O)c1ccc2sncc2c1Nc1ccc(I)cc1F` [Example 20, 4-(2-Fluoro-4-iodo-phenylamino)-benzo[d]isothiazole-5-carboxylic acid ((S)-2-hydroxy-propoxy)-amide], the EC50 in experiment [1] is below 500 nM; in experiment [2], below 100 nM; in experiment [3], below 100 nM; in experiment [4], below 100 nM.

Turning to `O=C(NOC[C@H](O)CO)c1ccc2sncc2c1Nc1ccc(I)cc1F` [Example 21, 4-(2-Fluoro-4-iodo-phenylamino)-benzo[d]isothiazole-5-carboxylic acid ((R)-2,3-dihydroxy-propoxy)-amide], the EC50 was below 500 nM in experiment [1], below 100 nM in experiment [2], below 100 nM in experiment [3] and below 100 nM in experiment [4].

Take `CSc1ccc(Nc2c(C(=O)NOC[C@H](O)CO)ccc3cnsc23)c(F)c1` [Example 22, 7-(2-Fluoro-4-methylsulfanyl-phenylamino)-benzo[d]isothiazole-6-carboxylic acid ((R)-2,3-dihydroxy-propoxy)-amide]: the EC50 is below 500 nM in experiment [1], below 100 nM in experiment [2], below 100 nM in experiment [3] and below 100 nM in experiment [4].

Consider `O=C(NOC[C@H](O)CO)c1ccc2cnsc2c1Nc1ccc(C2CC2)cc1F` [Example 23, 7-(4-Cyclopropyl-2-fluoro-phenylamino)-benzo[d]isothiazole-6-carboxylic acid ((R)-2,3-dihydroxy-propoxy)-amide], for which the EC50 in experiment [2] and in experiment [4] was below 100 nM in each case.

Take `O=C(NOC[C@H](O)CO)c1ccc2cnsc2c1Nc1ccc(Br)cc1F` [Example 24, 7-(4-Bromo-2-fluoro-phenylamino)-benzo[d]isothiazole-6-carboxylic acid ((R)-2,3-dihydroxy-propoxy)-amide]: the EC50 in experiment [1] was below 500 nM; in experiment [2], below 100 nM; in experiment [3], below 100 nM; in experiment [4], below 100 nM.

For the molecule `O=C(NOCCO)c1ccc2cnsc2c1Nc1ccc(Br)cc1F` [Example 25, 7-(4-Bromo-2-fluoro-phenylamino)-benzo[d]isothiazole-6-carboxylic acid (2-hydroxy-ethoxy)-amide], the EC50 is below 500 nM in experiment [1], below 100 nM in experiment [2], below 100 nM in experiment [3] and below 100 nM in experiment [4].

With `O=C(NOCCO)c1ccc2cnsc2c1Nc1ccc(I)cc1F` [Example 26, 7-(2-Fluoro-4-iodo-phenylamino)-benzo[d]isothiazole-6-carboxylic acid (2-hydroxy-ethoxy)-amide], the EC50 in experiment [3] and in experiment [4] was below 100 nM each time.

Take `O=C(NOC[C@H](O)CO)c1ccc2cnsc2c1Nc1ccc(I)cc1F` [Example 27, 7-(2-Fluoro-4-iodo-phenylamino)-benzo[d]isothiazole-6-carboxylic acid ((R)-2,3-dihydroxy-propoxy)amide]: the EC50 in experiment [1] was below 500 nM; in experiment [2], below 100 nM; in experiment [3], below 100 nM; in experiment [4], below 100 nM.
